# Legend:
# [1] = tested on: Enterococcus faecalis; test: Antibacterial activity against vancomycin-sensitive Enterococcus faecalis 09-8 by agar dilution method; type: functional
# [2] = tested on: Enterococcus faecalis; test: Antibacterial activity against vancomycin-resistant Enterococcus faecalis ATCC 51299 by agar dilution method; type: functional
# [3] = tested on: Citrobacter freundii; test: Antibacterial activity against Citrobacter freundii ATCC 43864 by agar dilution method; type: functional
# [4] = tested on: Pseudomonas aeruginosa; test: Antibacterial activity against Pseudomonas aeruginosa 09-14 by agar dilution method; type: functional
# [5] = tested on: Staphylococcus aureus; test: Antibacterial activity against methicillin-resistant Staphylococcus aureus ATCC 33591 by agar dilution method; type: functional
# [6] = tested on: Enterobacter cloacae; test: Antibacterial activity against Enterobacter cloacae 45301 by agar dilution method; type: functional
# [7] = tested on: Klebsiella pneumoniae; test: Antibacterial activity against extended-spectrum beta-lactamase-negative Klebsiella pneumoniae 09-8 by agar dilution method; type: functional
# [8] = tested on: Staphylococcus epidermidis; test: Antibacterial activity against methicillin-sensitive Staphylococcus epidermidis ATCC 12228 by agar dilution method; type: functional
# [9] = tested on: Escherichia coli; test: Antibacterial activity against extended-spectrum beta-lactamase-negative Escherichia coli 1515 by agar dilution method; type: functional
# [10] = tested on: Staphylococcus epidermidis; test: Antibacterial activity against methicillin-resistant Staphylococcus epidermidis 09-3 by agar dilution method; type: functional
# [11] = tested on: Enterococcus faecium; test: Antibacterial activity against vancomycin-resistant Enterococcus faecium 05-8 by agar dilution method; type: functional
# [12] = tested on: Proteus vulgaris; test: Antibacterial activity against Proteus vulgaris ATCC 29905 by agar dilution method; type: functional
# [13] = tested on: Escherichia coli; test: Antibacterial activity against extended-spectrum beta-lactamase-negative Escherichia coli ATCC 25922 by agar dilution method; type: functional
# [14] = tested on: Escherichia coli; test: Antibacterial activity against extended-spectrum beta-lactamase-negative Escherichia coli 09-20 by agar dilution method; type: functional
# [15] = tested on: Enterococcus faecalis; test: Antibacterial activity against vancomycin-sensitive Enterococcus faecalis ATCC 29212 by agar dilution method; type: functional
# [16] = tested on: Klebsiella pneumoniae; test: Antibacterial activity against extended-spectrum beta-lactamase-positive Klebsiella pneumoniae 09-25 by agar dilution method; type: functional
# [17] = tested on: Providencia rettgeri; test: Antibacterial activity against Providencia rettgeri ATCC 31052 by agar dilution method; type: functional
# [18] = tested on: Acinetobacter calcoaceticus; test: Antibacterial activity against Acinetobacter calcoaceticus ATCC 19606 by agar dilution method; type: functional
# [19] = Cytotoxicity against HEK293T cells after 48 hrs by MTS assay; type: cell-based, HEK-293T; settings: human
# [20] = tested on: Pseudomonas aeruginosa; test: Antibacterial activity against Pseudomonas aeruginosa PAO1 by agar dilution method; type: functional
# [21] = tested on: Klebsiella aerogenes; test: Antibacterial activity against Enterobacter aerogenes 45102 by agar dilution method; type: functional
# [22] = tested on: Morganella morganii; test: Antibacterial activity against Morganella morganii ATCC 25830 by agar dilution method; type: functional
# [23] = tested on: Enterococcus faecium; test: Antibacterial activity against vancomycin-resistant Enterococcus faecium ATCC 700221 by agar dilution method; type: functional
# [24] = tested on: Staphylococcus aureus; test: Antibacterial activity against methicillin-sensitive Staphylococcus aureus ATCC 29213 by agar dilution method; type: functional
# [25] = tested on: Enterococcus faecium; test: Antibacterial activity against vancomycin-sensitive Enterococcus faecium 09-10 by agar dilution method; type: functional
# [26] = tested on: Staphylococcus epidermidis; test: Antibacterial activity against methicillin-sensitive Staphylococcus epidermidis 09-9 by agar dilution method; type: functional
# [27] = tested on: Pseudomonas aeruginosa; test: Antibacterial activity against Pseudomonas aeruginosa ATCC 27853 by agar dilution method; type: functional
# [28] = tested on: Enterococcus faecalis; test: Antibacterial activity against vancomycin-resistant Enterococcus faecalis 09-9 by agar dilution method; type: functional
# [29] = tested on: Escherichia coli; test: Antibacterial activity against extended-spectrum beta-lactamase-positive Escherichia coli 09-1 by agar dilution method; type: functional
# [30] = tested on: Klebsiella pneumoniae; test: Antibacterial activity against Klebsiella pneumoniae ATCC BAA-2146 expressing NDM-1 by agar dilution method; type: functional
# [31] = tested on: Staphylococcus aureus; test: Antibacterial activity against methicillin-sensitive Staphylococcus aureus 09-6 by agar dilution method; type: functional
# [32] = tested on: Salmonella typhi; test: Antibacterial activity against Salmonella typhi H901 by agar dilution method; type: functional, Salmonella enterica subsp. enterica serovar Typhi; settings: Salmonella enterica
# [33] = tested on: Klebsiella pneumoniae; test: Antibacterial activity against extended-spectrum beta-lactamase-positive Klebsiella pneumoniae ATCC 700603 by agar dilution method; type: functional
# [34] = tested on: Klebsiella pneumoniae; test: Antibacterial activity against extended-spectrum beta-lactamase-negative Klebsiella pneumoniae 7 by agar dilution method; type: functional
# [35] = tested on: Staphylococcus aureus; test: Antibacterial activity against methicillin-resistant Staphylococcus aureus 09-13 by agar dilution method; type: functional
# [36] = tested on: Proteus mirabilis; test: Antibacterial activity against Proteus mirabilis 09-1 by agar dilution method; type: functional
# [37] = tested on: Serratia marcescens; test: Antibacterial activity against Serratia marcescens 41002 by agar dilution method; type: functional
# [38] = tested on: Staphylococcus aureus; test: Antibacterial activity against methicillin-sensitive Staphylococcus aureus 15 by agar dilution method; type: functional
compound,measurement,setting,value
CC1CCN(C(=N)c2ccc3cc(-c4ccc(Oc5ccc(-c6cc7ccc(C(=N)N8CCC(C)CC8)cc7[nH]6)cc5)cc4)[nH]c3c2)CC1,MIC,[1],128 µg/mL
same,MIC,[2],128 µg/mL
same,MIC,[3],> 128 µg/mL
same,MIC,[4],> 128 µg/mL
same,MIC,[5],16 µg/mL
same,MIC,[6],> 128 µg/mL
same,MIC,[7],> 128 µg/mL
same,MIC,[8],4 µg/mL
same,MIC,[9],> 128 µg/mL
same,MIC,[10],8 µg/mL
same,MIC,[11],128 µg/mL
same,MIC,[12],> 128 µg/mL
same,MIC,[13],> 128 µg/mL
same,MIC,[14],> 128 µg/mL
same,MIC,[15],64 µg/mL
same,MIC,[16],> 128 µg/mL
same,MIC,[17],> 128 µg/mL
same,MIC,[18],> 128 µg/mL
same,CC50 at 48 h,[19],3.2 µg/mL
same,MIC,[20],> 128 µg/mL
same,MIC,[21],> 128 µg/mL
same,MIC,[22],> 128 µg/mL
same,MIC,[23],16 µg/mL
same,MIC,[24],16 µg/mL
same,MIC,[25],128 µg/mL
same,MIC,[26],8 µg/mL
same,MIC,[27],> 128 µg/mL
same,MIC,[28],128 µg/mL
same,MIC,[29],> 128 µg/mL
same,MIC,[30],> 128 µg/mL
same,MIC,[31],16 µg/mL
same,MIC,[32],> 128 µg/mL
same,MIC,[33],> 128 µg/mL
same,MIC,[34],> 128 µg/mL
same,MIC,[35],16 µg/mL
same,MIC,[36],> 128 µg/mL
same,MIC,[37],> 128 µg/mL
same,MIC,[38],16 µg/mL
N=C(c1ccc2cc(-c3ccc(Oc4ccc(-c5cc6ccc(C(=N)N7CCOCC7)cc6[nH]5)cc4)cc3)[nH]c2c1)N1CCOCC1,MIC,[1],8 µg/mL
same,MIC,[2],4 µg/mL
same,MIC,[3],> 128 µg/mL
same,MIC,[4],> 128 µg/mL
same,MIC,[5],2 µg/mL
same,MIC,[6],> 128 µg/mL
same,MIC,[7],> 128 µg/mL
same,MIC,[8],2 µg/mL
same,MIC,[9],128 µg/mL
same,MIC,[10],2 µg/mL
same,MIC,[11],8 µg/mL
same,MIC,[12],> 128 µg/mL
same,MIC,[13],32 µg/mL
same,MIC,[14],64 µg/mL
same,MIC,[15],8 µg/mL
same,MIC,[16],> 128 µg/mL
same,MIC,[17],> 128 µg/mL
same,MIC,[18],> 128 µg/mL
same,CC50 at 48 h,[19],4.9 µg/mL
same,MIC,[20],> 128 µg/mL
same,MIC,[21],> 128 µg/mL
same,MIC,[22],16 µg/mL
same,MIC,[23],2 µg/mL
same,MIC,[24],2 µg/mL
same,MIC,[25],4 µg/mL
same,MIC,[26],2 µg/mL
same,MIC,[27],> 128 µg/mL
same,MIC,[28],16 µg/mL
same,MIC,[29],128 µg/mL
same,MIC,[30],> 128 µg/mL
same,MIC,[31],2 µg/mL
same,MIC,[32],64 µg/mL
same,MIC,[33],> 128 µg/mL
same,MIC,[34],> 128 µg/mL
same,MIC,[35],2 µg/mL
same,MIC,[36],> 128 µg/mL
same,MIC,[37],> 128 µg/mL
same,MIC,[38],1 µg/mL
CC1CC(C)CN(C(=N)c2ccc3cc(-c4ccc(Oc5ccc(-c6cc7ccc(C(=N)N8CC(C)CC(C)C8)cc7[nH]6)cc5)cc4)[nH]c3c2)C1 (configuration not stated),MIC,[1],64 µg/mL
same,MIC,[2],64 µg/mL
same,MIC,[3],> 128 µg/mL
same,MIC,[4],> 128 µg/mL
same,MIC,[5],64 µg/mL
same,MIC,[6],> 128 µg/mL
same,MIC,[7],> 128 µg/mL
same,MIC,[8],16 µg/mL
same,MIC,[9],> 128 µg/mL
same,MIC,[10],16 µg/mL
same,MIC,[11],> 128 µg/mL
same,MIC,[12],> 128 µg/mL
same,MIC,[13],> 128 µg/mL
same,MIC,[14],> 128 µg/mL
same,MIC,[15],128 µg/mL
same,MIC,[16],> 128 µg/mL
same,MIC,[17],> 128 µg/mL
same,MIC,[18],> 128 µg/mL
same,CC50 at 48 h,[19],2.6 µg/mL
same,MIC,[20],> 128 µg/mL
same,MIC,[21],> 128 µg/mL
same,MIC,[22],> 128 µg/mL
same,MIC,[23],128 µg/mL
same,MIC,[24],64 µg/mL
same,MIC,[25],128 µg/mL
same,MIC,[26],64 µg/mL
same,MIC,[27],> 128 µg/mL
same,MIC,[28],64 µg/mL
same,MIC,[29],> 128 µg/mL
same,MIC,[30],> 128 µg/mL
same,MIC,[31],64 µg/mL
same,MIC,[32],> 128 µg/mL
same,MIC,[33],> 128 µg/mL
same,MIC,[34],> 128 µg/mL
same,MIC,[35],16 µg/mL
same,MIC,[36],> 128 µg/mL
same,MIC,[37],> 128 µg/mL
same,MIC,[38],64 µg/mL
CCNC(=N)c1ccc2cc(-c3ccc(Oc4ccc(-c5cc6ccc(C(=N)NCC)cc6[nH]5)cc4)cc3)[nH]c2c1,MIC,[1],2 µg/mL
same,MIC,[2],2 µg/mL
same,MIC,[3],128 µg/mL
same,MIC,[4],128 µg/mL
same,MIC,[5],1 µg/mL
same,MIC,[6],64 µg/mL
same,MIC,[7],64 µg/mL
same,MIC,[8],1 µg/mL
same,MIC,[9],64 µg/mL
same,MIC,[10],1 µg/mL
same,MIC,[11],4 µg/mL
same,MIC,[12],128 µg/mL
same,MIC,[13],64 µg/mL
same,MIC,[14],64 µg/mL
same,MIC,[15],2 µg/mL
same,MIC,[16],64 µg/mL
same,MIC,[17],128 µg/mL
same,MIC,[18],> 128 µg/mL
same,CC50 at 48 h,[19],36.3 µg/mL
same,MIC,[20],> 128 µg/mL
same,MIC,[21],64 µg/mL
same,MIC,[22],128 µg/mL
same,MIC,[23],2 µg/mL
same,MIC,[24],2 µg/mL
same,MIC,[25],16 µg/mL
same,MIC,[26],1 µg/mL
same,MIC,[27],128 µg/mL
same,MIC,[28],1 to 8 µg/mL
same,MIC,[29],64 µg/mL
same,MIC,[30],128 µg/mL
same,MIC,[31],2 µg/mL
same,MIC,[32],64 µg/mL
same,MIC,[33],64 µg/mL
same,MIC,[34],128 µg/mL
same,MIC,[35],1 µg/mL
same,MIC,[36],128 µg/mL
same,MIC,[37],128 µg/mL
same,MIC,[38],1 µg/mL

# From ChEMBL document CHEMBL4002623, “Synthesis and in vitro activity of dicationic indolyl diphenyl ethers as novel potent antibiotic agents against drug-resistant bacteria” (Bioorg Med Chem Lett, 2017)
